What was measured:
[1] = system: PANC-1 cancer cells; test: Cell death assay, propidium iodide/Hoechst 33342 double-staining, confocal imaging; format: cell-based, human; settings: CPT suspended in PBS, not in particles
Experimental: FIGS. 9A-9C show light-triggered delivery of the anticancer drug camptothecin (CPT) inside PANC-1 cancer cells to induce apoptosis according to an embodiment of the current invention, CPT molecules were loaded into the pores of the LAMS and a homogeneous suspension of the CPT-loaded particles (10 μg/ml) was added to the cells which were incubated in Lab-Tek chamber slides for 3 hrs in dark. The cells were then irradiated under ˜0.1 W/cm^2, 413 nm light for 1 to 10 min, again incubated in the dark for 48 hours, and double-stained with propidium iodide/Hoechst 33342 solution (1:1). FIG. 9A. CPT-loaded particles were incubated with cancer cells and illuminated for 1 (a), 3 (b), 5 (c) or 10 min (d, e, f). FIG. 9B. […]
Cell Death Assay: Cell death was also examined by using the propidium iodide and Hoechst 33342 double-staining method. The cells incubated on a Lab-Tek chamber slide system were stained with propidium iodide/Hoechst 33342 (1:1) for 5 min after treatment with CPT-loaded LAMS or free LAMS followed by light irradiation, and then examined with fluorescence microscopy. […] The absorbance of each well was measured at 450 nm with a plate reader. Since the absorbance is proportional to the number of viable cells in the medium, the viable cell number was determined by using a previously prepared calibration curve (Dojindo Co.).

[2] = system: PANC-1 cancer cells; test: Photocontrolled staining of cell nuclei by released PI, confocal microscopy; format: cell-based, human; settings: free PI not loaded into the particles
Experimental: FIGS. 8A-8C show confocal microscope images of the photocontrolled staining of the nuclei of PANC-1 cancer cells. Plasma membrane impermeable propidium iodide (PI) molecules were loaded in the pores of LAMS and the dye loaded particles were incubated with the cells for 3 hours in the dark. The cells were then exposed to the activation beam for 1 to 10 min. After further incubation in the dark for 10 min, the cells were examined with confocal microscopy ([…]) FIG. 8A. Cells incubated with the PI-loaded LAMS and illuminated for 0 (a), 1 (b), 3 (c), or 5 min (f) under a constant ˜0.2 W/cm^2, 413 nm light or with different light intensities (˜0.01 (d) or ˜0.1 W/cm^2 (e) for 5 min at a 413 nm light). FIG. 8B. PANC-1 cells incubated with the PI-loaded LAMS (g), free PI molecules (h), or empty LAMS (i) were kept in the dark and exposed to a 413 nm light. FIG. 8C. Cells incubated with the PI-loaded LAMS were illuminated with ˜0.2 W/cm^2, 676 nm light for 0 (j), 1 (k) or 5 min (l). Scale bar: 30 μm.
Based on the successful operation of the impeller in water, in vitro studies were carried out on two human cancer cell lines (PANC-1 and SW480). To detect the photo-responsive behavior of the impellers inside of cells, a membrane-impermeable dye, PI was chosen as the fluorescent probe molecule and loaded into the particles following the same procedure as that used for the Rhodamine B loading. […]

| SMILES | cell killing [1] | cell staining (cell entry) [2] |
| --- | --- | --- |
| CC[C@@]1(O)C(=O)OCc2c1cc1n(c2=O)Cc2cc3ccccc3nc2-1 [CPT, camptothecin] | did not kill the cells |  |
| CC[N+](C)(CC)CCC[n+]1c(-c2ccccc2)c2cc(N)ccc2c2ccc(N)cc21.[I-].[I-] [PI, propidium iodide] |  | cell staining did not occur |

— patent US20100284924A1, “NANO-DEVICES HAVING IMPELLERS FOR CAPTURE AND RELEASE OF MOLECULES” (The Regents of the University of California, priority 2009, published 2010)
